ChEMBL document CHEMBL1154915, “Selection of inhibitory peptides for Aurora-A kinase from a phage-displayed library of helix-loop-helix peptides” (Bioorg Med Chem Lett, 2010)
Active and inactive are the calls of the source. The rule behind the calls is not given here. Residues, ends and D or L forms follow the SMILES beside them.

target: T1, Aurora kinase A (Homo sapiens) (UniProt O14965); experiment: Binding affinity to GST-tagged Aurora A after 1 hr by ELISA
T1 sequence (whole entry): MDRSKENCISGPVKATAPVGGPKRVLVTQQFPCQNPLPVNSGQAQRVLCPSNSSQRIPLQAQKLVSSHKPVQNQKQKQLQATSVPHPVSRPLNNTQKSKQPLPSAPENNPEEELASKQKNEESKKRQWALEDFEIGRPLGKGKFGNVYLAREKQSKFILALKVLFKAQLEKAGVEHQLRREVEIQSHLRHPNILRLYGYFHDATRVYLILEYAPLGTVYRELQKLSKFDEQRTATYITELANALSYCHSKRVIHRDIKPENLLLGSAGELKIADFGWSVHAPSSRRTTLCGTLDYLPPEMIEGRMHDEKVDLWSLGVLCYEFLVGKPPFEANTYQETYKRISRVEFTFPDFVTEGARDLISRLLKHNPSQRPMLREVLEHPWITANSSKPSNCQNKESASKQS

Compound	Activity
H-AELAALEAELAALEGWVGMREVWRGKLAALKAKLAALKA-OH	Active
H-AELAALEAELAALEGARSLVAQMTGKLAALKAKLAALKA-OH	Active
H-AELAALEAELAALEGQGRADMSILGKLAALKAKLAALKA-OH	Active
H-AELAALEAELAALEGRDQVMWFLHGKLAALKAKLAALKA-OH	Active
H-AELAALEAELAALEGQVGSTRLLSGKLAALKAKLAALKA-OH	Active
H-AELAALEAELAALEGSGAWMGSLLGKLAALKAKLAALKA-OH	Active
H-AELAALEAELAALEGWRRRLNNWWGKLAALKAKLAALKA-OH	Active
H-AELAALEAELAALEGSVAQLGLLLGKLAALKAKLAALKA-OH	Active
H-AELAALEAELAALEGLQTMWHSLWGKLAALKAKLAALKA-OH	Active
CC(C)C[C@H](NC(=O)[C@H](C)NC(=O)[C@H](C)NC(=O)[C@H](CC(C)C)NC(=O)[C@H](CCC(=O)O)NC(=O)[C@H](C)NC(=O)[C@H](CCC(=O)O)NC(=O)[C@H](CC(C)C)NC(=O)[C@H](C)NC(=O)[C@H](C)NC(=O)[C@H](CC(C)C)NC(=O)[C@H](CCC(=O)O)NC(=O)[C@@H](C)N)C(=O)N[C@@H](CCC(=O)O)C(=O)NCC(=O)N[C@@H](CCCNC(=N)N)C(=O)N1CCC[C@H]1C(=O)N[C@@H](Cc1ccccc1)C(=O)N[C@@H](Cc1c[nH]c2ccccc12)C(=O)N[C@@H](CC(C)C)C(=O)N[C@@H](CC(=O)O)C(=O)N[C@@H](CCCNC(=N)N)C(=O)N[C@@H](CC(C)C)C(=O)N[C@@H](CC(C)C)C(=O)NCC(=O)N[C@@H](CCCCN)C(=O)N[C@@H](CC(C)C)C(=O)N[C@@H](C)C(=O)N[C@@H](C)C(=O)N[C@@H](CC(C)C)C(=O)N[C@@H](CCCCN)C(=O)N[C@@H](C)C(=O)N[C@@H](CCCCN)C(=O)N[C@@H](CC(C)C)C(=O)N[C@@H](C)C(=O)N[C@@H](C)C(=O)N[C@@H](CC(C)C)C(=O)N[C@@H](CCCCN)C(=O)N[C@@H](C)C(=O)O	Active
H-AELAALEAELAALEGKGTQMWWLLGKLAALKAKLAALKA-OH	Active
CC[C@H](C)[C@H](NC(=O)[C@H](CCCNC(=N)N)NC(=O)[C@H](CCCNC(=N)N)NC(=O)[C@H](CO)NC(=O)[C@H](C)NC(=O)CNC(=O)[C@H](CCC(=O)O)NC(=O)[C@H](CC(C)C)NC(=O)[C@H](C)NC(=O)[C@H](C)NC(=O)[C@H](CC(C)C)NC(=O)[C@H](CCC(=O)O)NC(=O)[C@H](C)NC(=O)[C@H](CCC(=O)O)NC(=O)[C@@H]1CCCN1C(=O)[C@H](C)NC(=O)[C@H](C)NC(=O)[C@H](CC(C)C)NC(=O)[C@H](CCC(=O)O)NC(=O)[C@@H](C)N)C(=O)N[C@@H](CS)C(=O)N[C@@H](CS)C(=O)N[C@@H](CO)C(=O)N[C@@H](Cc1c[nH]c2ccccc12)C(=O)NCC(=O)N[C@@H](CCCCN)C(=O)N[C@@H](CC(C)C)C(=O)N[C@@H](C)C(=O)N[C@@H](C)C(=O)N[C@@H](CC(C)C)C(=O)N[C@@H](CCCCN)C(=O)N[C@@H](C)C(=O)N[C@@H](CCCCN)C(=O)N[C@@H](CC(C)C)C(=O)N[C@@H](C)C(=O)N[C@@H](C)C(=O)N[C@@H](CC(C)C)C(=O)N[C@@H](CCCCN)C(=O)N[C@@H](C)C(=O)O	Active
H-AELAALEAELAALEGLVMGVKAFLGKLAALKAKLAALKA-OH	Active
H-AELAALEAELAALEGQLWMLNTILGKLAALKAKLAALKA-OH	Active
H-AELAALEAELAAPEGSQERKGVLAGKLAALKAKLAALKA-OH	Active
H-AELAALEAELAALEGRRAVWPFGFGKLAALKAKLAALKA-OH	Active
H-AELAALEAELAALEGGYERRGWGVTGKLAALKAKLAALKA-OH	Active
H-AELAALEAELAALEGNISRFWVLAGKLAALKAKLAALKA-OH	Active
H-AELAALEAELAALEGSRNQMYWLYGKLAALKAKLAALKA-OH	Active
CC(C)C[C@H](NC(=O)[C@H](C)NC(=O)[C@H](C)NC(=O)[C@H](CC(C)C)NC(=O)[C@H](CCC(=O)O)NC(=O)[C@H](C)NC(=O)[C@H](CCC(=O)O)NC(=O)[C@H](CC(C)C)NC(=O)[C@H](C)NC(=O)[C@H](C)NC(=O)[C@H](CC(C)C)NC(=O)[C@H](CCC(=O)O)NC(=O)[C@H](C)N)C(=O)N[C@@H](CCC(=O)O)C(=O)NCC(=O)N[C@@H](CCCNC(=N)N)C(=O)N[C@@H](CCCCN)C(=O)N[C@@H](CC(=O)O)C(=O)N[C@@H](Cc1ccc(O)cc1)C(=O)N[C@@H](Cc1ccccc1)C(=O)N[C@@H](Cc1cnc[nH]1)C(=O)N[C@@H](CC(C)C)C(=O)N[C@@H](Cc1c[nH]c2ccccc12)C(=O)N[C@@H](Cc1cnc[nH]1)C(=O)N[C@@H](CC(=O)O)C(=O)NCC(=O)N[C@@H](CCCCN)C(=O)N[C@@H](CC(C)C)C(=O)N[C@@H](C)C(=O)N[C@@H](C)C(=O)N[C@@H](CC(C)C)C(=O)N[C@@H](CCCCN)C(=O)N[C@@H](C)C(=O)N[C@H](CCCCN)C(=O)N[C@H](CC(C)C)C(=O)N[C@H](C)C(=O)N[C@H](C)C(=O)N[C@H](CC(C)C)C(=O)N[C@H](CCCCN)C(=O)N[C@H](C)C(=O)O	Active
H-AELAALEAELAPLEGYVSAGSQLWDGKLAALKAKLAALKA-OH	Active
H-AELAALEAELAALEGWGGLMGWISGKLAALKAKLAALKA-OH	Active

Other lines, results leading:

Activity	Compound
Active	H-AELAALEAELAALEGLEGKSMGFIGKLAALKAKLAALKA-OH
Active	H-AELAALEAELAALEGSQDNARSLWGKLAALKAKLAALKA-OH
Active	H-AELAALEAELAALEGFPGRFGLFVGKLAALKAKLAALKA-OH
Active	H-AELAALEAELAALEGGTKMWSLLVDGKLAALKAKLAALKA-OH
Active	CC(C)C[C@H](NC(=O)[C@H](C)NC(=O)[C@H](C)NC(=O)[C@H](CC(C)C)NC(=O)[C@H](CCC(=O)O)NC(=O)[C@H](C)NC(=O)[C@H](CCC(=O)O)NC(=O)[C@H](CC(C)C)NC(=O)[C@H](C)NC(=O)[C@H](C)NC(=O)[C@H](CC(C)C)NC(=O)[C@H](CCC(=O)O)NC(=O)[C@H](C)N)C(=O)N[C@@H](CCC(=O)O)C(=O)NCC(=O)N[C@@H](CS)C(=O)N[C@H](C(=O)N[C@@H](CO)C(=O)N[C@H](C(=O)N[C@@H](Cc1ccc(O)cc1)C(=O)N[C@@H](CS)C(=O)N[C@H](C(=O)N[C@H](C(=O)N[C@@H](CO)C(=O)NCC(=O)N[C@@H](CCCCN)C(=O)N[C@@H](CC(C)C)C(=O)N[C@@H](C)C(=O)N[C@@H](C)C(=O)N[C@@H](CC(C)C)C(=O)N[C@@H](CCCCN)C(=O)N[C@@H](C)C(=O)N[C@@H](CCCCN)C(=O)N[C@@H](CC(C)C)C(=O)N[C@@H](C)C(=O)N[C@@H](C)C(=O)N[C@@H](CC(C)C)C(=O)N[C@@H](CCCCN)C(=O)N[C@@H](C)C(=O)O)C(C)C)[C@@H](C)O)C(C)C)[C@@H](C)O (H-AELAALEAELAALEGCTSVYCTVSGKLAALKAKLAALKA-OH)
Active	CSCC[C@H](NC(=O)[C@@H]1CCCN1C(=O)[C@H](CCC(N)=O)NC(=O)[C@H](CO)NC(=O)CNC(=O)[C@H](Cc1c[nH]c2ccccc12)NC(=O)CNC(=O)[C@H](CCC(=O)O)NC(=O)[C@H](CC(C)C)NC(=O)[C@H](C)NC(=O)[C@H](C)NC(=O)[C@H](CC(C)C)NC(=O)[C@H](CCC(=O)O)NC(=O)[C@H](C)NC(=O)[C@H](CCC(=O)O)NC(=O)[C@H](CC(C)C)NC(=O)[C@H](C)NC(=O)[C@H](C)NC(=O)[C@H](CC(C)C)NC(=O)[C@H](CCC(=O)O)NC(=O)[C@@H](C)N)C(=O)N[C@@H](CC(=O)O)C(=O)N[C@@H](CO)C(=O)N[C@H](C(=O)NCC(=O)N[C@@H](CCCCN)C(=O)N[C@@H](CC(C)C)C(=O)N[C@@H](C)C(=O)N[C@@H](C)C(=O)N[C@@H](CC(C)C)C(=O)N[C@@H](CCCCN)C(=O)N[C@@H](C)C(=O)N[C@@H](CCCCN)C(=O)N[C@@H](CC(C)C)C(=O)N[C@@H](C)C(=O)N[C@@H](C)C(=O)N[C@@H](CC(C)C)C(=O)N[C@@H](CCCCN)C(=O)N[C@@H](C)C(=O)O)C(C)C
Active	H-AELAALEAELAALEGSGMLAHFSWGKLAALKAKLAALKA-OH
Active	H-AELAALEAELAALEGGSPRWYELLGKLAALKAKLAALKA-OH
Active	H-AELAALEAELAALEGGKVAAWGFWGKLAALKAKLAALKA-OH
Active	H-AELAALEAELAALEGYEGQFMWLIGKLAALKAKLAALKA-OH
Active	CC(C)C[C@H](NC(=O)[C@H](C)NC(=O)[C@H](C)NC(=O)[C@H](CC(C)C)NC(=O)[C@H](CCC(=O)O)NC(=O)[C@H](C)NC(=O)[C@H](CCC(=O)O)NC(=O)[C@H](CC(C)C)NC(=O)[C@H](C)NC(=O)[C@H](C)NC(=O)[C@H](CC(C)C)NC(=O)[C@H](CCC(=O)O)NC(=O)[C@@H](C)N)C(=O)N[C@@H](CCC(=O)O)C(=O)NCC(=O)N[C@H](C(=O)N[C@@H](CC(C)C)C(=O)N[C@H](C(=O)N[C@H](C(=O)N[C@@H](CO)C(=O)N[C@@H](Cc1c[nH]c2ccccc12)C(=O)N[C@@H](CC(=O)O)C(=O)N1CCC[C@H]1C(=O)N[C@@H](Cc1c[nH]c2ccccc12)C(=O)NCC(=O)N[C@@H](CCCCN)C(=O)N[C@@H](CC(C)C)C(=O)N[C@@H](C)C(=O)N[C@@H](C)C(=O)N[C@@H](CC(C)C)C(=O)N[C@@H](CCCCN)C(=O)N[C@@H](C)C(=O)N[C@@H](CCCCN)C(=O)N[C@@H](CC(C)C)C(=O)N[C@@H](C)C(=O)N[C@@H](C)C(=O)N[C@@H](CC(C)C)C(=O)N[C@@H](CCCCN)C(=O)N[C@@H](C)C(=O)O)C(C)C)C(C)C)[C@H](C)O
Active	H-AELAALEAELAALEGMRDWLIIGFGKLAALKAKLAALKA-OH
Active	H-AELAALEAELAALEGKVYMFWTIMGKLAALKAKLAALKA-OH
Active	H-AELAALEAELAALEGLQQVLSYIFGKLAALKAKLAALKA-OH
Active	H-AELAALEAELAALEGWVQVAQKVRGKLAALKAKLAALKA-OH
Active	H-AELAALEAELAALEGSRRMWNAYEGKLAALKAKLAALKA-OH
